Experimental data: patent publication US20100152434A1, “Protein Kinase-binding Nucleosides and Associated Methods” (priority 2007, published 2010)
pIC50: −log10 of the molar value. Like-named read-outs stand apart in the source and are kept apart here.

Tests used:
[1] = system: NCI-H23; experiment: cells; settings: Homo sapiens, NCI-H23
[2] = system: RPMI-8226; experiment: cells; settings: Homo sapiens, RPMI-8226
[3] = system: LOX IMVI
[4] = system: HCT-15; experiment: cells; settings: Homo sapiens, HCT-15
[5] = system: SK-MEL-2
[6] = system: MDA-MB-231/ATCC
[7] = system: OVCAR-8
[8] = system: RXF 393; settings: RXF 393
[9] = system: M14
[10] = system: HCC-2998; settings: HCC-2993
[11] = system: NCI-H226
[12] = system: HOP-62; settings: HOP-52
[13] = system: 788-0; experiment: cells; settings: Homo sapiens, 786-0
[14] = system: ACHN; experiment: cells; settings: Homo sapiens
[15] = system: HCT-116
[16] = system: SK-MEL-5
[17] = system: HCT-15
[18] = system: SF-539
[19] = system: OVCAR-5; experiment: cells; settings: Homo sapiens, OVCAR-5
[20] = system: CCRF-CEM
[21] = system: A498
[22] = system: SF-268; experiment: cells; settings: Homo sapiens, SF-268
[23] = system: NCI-H23
[24] = system: SK-OV-3
[25] = system: SNB-75; experiment: cells; settings: Homo sapiens, SNB-75
[26] = Log10 Concentration −4.0, Molar
[27] = Log10 Concentration −5.0, Molar
[28] = Log10 Concentration −6.0, Molar
[29] = Log10 Concentration −7.0, Molar
[30] = Log10 Concentration −8.0, Molar

CNC(=O)NC[C@H]1O[C@@H](n2cnc3c(NC(=O)Nc4ccccc4)ncnc32)C(O[Si](C)(C)C(C)(C)C)[C@H]1O[Si](C)(C)C(C)(C)C (stereo partly shown) [Compound 25, 2′,3′-Bis-O-(tert-butyldimethylsilyl)-5-deoxy-5′-[(N-methylcarbamoyl)amino]-N^6-(N-phenylcarbamoyl)adenosine]
GI50 [1]: 3.17 µM
pIC50 [1]: 4.07
GI50 [2]: 3.27 µM
pIC50 [2]: < 4.00
TGI [3]: 3.36E−6 Molar
Percent Growth [3, 26]: −77%
Percent Growth [3, 27]: −89%
Percent Growth [3, 28]: 98%
Percent Growth [3, 29]: 101%
Percent Growth [3, 30]: 102%
GI50 [4]: 3.62 µM
pIC50 [4]: < 4.00
TGI [5]: 5.54E−6 Molar
Percent Growth [5, 26]: −67%
Percent Growth [5, 27]: −35%
Percent Growth [5, 28]: 105%
Percent Growth [5, 29]: 110%
Percent Growth [5, 30]: 106%
TGI [6]: 5.12E−6 Molar
Percent Growth [6, 26]: −76%
Percent Growth [6, 27]: −20%
Percent Growth [6, 28]: 106%
Percent Growth [6, 29]: 109%
Percent Growth [6, 30]: 105%
TGI [7]: 4.01E−5 Molar
Percent Growth [7, 26]: −9%
Percent Growth [7, 27]: 13%
Percent Growth [7, 28]: 106%
Percent Growth [7, 29]: 106%
Percent Growth [7, 30]: 108%
TGI [8]: 4.01E−6 Molar
Percent Growth [8, 26]: −77%
Percent Growth [8, 27]: −73%
Percent Growth [8, 28]: 111%
Percent Growth [8, 29]: 73%
Percent Growth [8, 30]: 96%
TGI [9]: 1.85E−5 Molar
Percent Growth [9, 26]: −52%
Percent Growth [9, 27]: 19%
Percent Growth [9, 28]: 105%
Percent Growth [9, 29]: 107%
Percent Growth [9, 30]: 101%
TGI [10]: 3.75E−6 Molar
Percent Growth ([10]; Log10 Concentration −4.0 Molar): −91%
Percent Growth ([10]; Log10 Concentration −5.0 Molar): −79%
Percent Growth ([10]; Log10 Concentration −6.0 Molar): 106%
Percent Growth ([10]; Log10 Concentration −7.0 Molar): 93%
Percent Growth ([10]; Log10 Concentration −8.0 Molar): 100%
TGI [11]: 3.63E−6 Molar
Percent Growth [11, 26]: −48%
Percent Growth [11, 27]: −7%
Percent Growth [11, 28]: 105%
Percent Growth [11, 29]: 106%
Percent Growth [11, 30]: 102%
TGI [12]: 1.71E−5 Molar
Percent Growth ([12]; Log10 Concentration −4.0 Molar): −55%
Percent Growth ([12]; Log10 Concentration −5.0 Molar): 25%
Percent Growth ([12]; Log10 Concentration −6.0 Molar): 105%
Percent Growth ([12]; Log10 Concentration −7.0 Molar): 108%
Percent Growth ([12]; Log10 Concentration −8.0 Molar): 102%
GI50 [13]: 2.04 µM
pIC50 [13]: 5.17
GI50 [14]: 3.83 µM
pIC50 [14]: < 4.00
TGI [15]: 4.31E−6 Molar
Percent Growth [15, 26]: −100%
Percent Growth [15, 27]: −59%
Percent Growth [15, 28]: 102%
Percent Growth [15, 29]: 105%
Percent Growth [15, 30]: 107%
TGI [16]: 4.75E−6 Molar
Percent Growth [16, 26]: −99%
Percent Growth [16, 27]: −42%
Percent Growth [16, 28]: 82%
Percent Growth [16, 29]: 96%
Percent Growth [16, 30]: 102%
TGI [17]: >1.00E−4 Molar
Percent Growth [17, 26]: 6%
Percent Growth [17, 27]: 11%
Percent Growth [17, 28]: 100%
Percent Growth [17, 29]: 106%
Percent Growth [17, 30]: 105%
TGI [18]: 1.30E−5 Molar
Percent Growth [18, 26]: −51%
Percent Growth [18, 27]: 7%
Percent Growth [18, 28]: 91%
Percent Growth [18, 29]: 100%
Percent Growth [18, 30]: 100%
GI50 [19]: 5.24 µM
pIC50 [19]: < 4.00
TGI [20]: >1.00E−4 Molar
Percent Growth [20, 26]: 4%
Percent Growth [20, 27]: 9%
Percent Growth [20, 28]: 101%
Percent Growth [20, 29]: 109%
Percent Growth [20, 30]: 104%
TGI [21]: 4.06E−6 Molar
Percent Growth [21, 26]: −75%
Percent Growth [21, 27]: −39%
Percent Growth [21, 28]: 90%
Percent Growth [21, 29]: 97%
Percent Growth [21, 30]: 92%
GI50 [22]: 3.58 µM
pIC50 [22]: < 4.00
TGI [23]: 9.07E−6 Molar
Percent Growth [23, 26]: −53%
Percent Growth [23, 27]: −5%
Percent Growth [23, 28]: 105%
Percent Growth [23, 29]: 106%
Percent Growth [23, 30]: 100%
TGI [24]: >1.00E−4 Molar
Percent Growth [24, 26]: 5%
Percent Growth [24, 27]: 39%
Percent Growth [24, 28]: 107%
Percent Growth [24, 29]: 113%
Percent Growth [24, 30]: 106%
GI50 [25]: 2.43 µM
pIC50 [25]: < 4.00
